Test results as given in the SangsterLogP compilation.

In order of rising logP:
1. Nc1ccccn1  0.4
2. NC(=O)NN=Cc1ccc([N+](=O)[O-])o1  0.74
3. NCc1ccccc1  1.1
4. NS(=O)(=O)c1cc(C2(O)NC(=O)c3ccccc32)ccc1Cl (centres undefined)  1.17
5. CC(N)c1ccccc1 (centres undefined)  1.45
6. Cc1ccnc(C)c1  1.58
7. Cc1ccccc1CN  1.62
8. Cc1cncc(C)c1  1.74
9. Cc1cccc(CN)c1  1.82
10. Cc1cc(C)cc(N)c1  2.09
11. CC(=O)O[C@]1(C(=O)CO)CC[C@H]2[C@@H]3CCC4=CC(=O)CC[C@]4(C)[C@H]3[C@@H](O)C[C@@]21C  2.17
12. C=C[C@H]1CN2CC[C@H]1C[C@@H]2[C@@H](O)c1ccnc2ccc(OC)cc12  2.77
13. CN1CCOC(c2ccccc2)c2ccccc2C1 (centres undefined)  3.02
14. CCCCNc1ccc(C(=O)OCCN(C)C)cc1  3.46
